What was measured:
Assay type in all cases: in vivo
[1] = test system: zinnia; assay: Herbicidal activity, post-emergence stem and leaf spray, greenhouse: zinnia control; conditions: visual, 0 = no control effect, 100% = complete killing
Experimental: (§1) Seeds of broadleaf weeds (zinnia and piemarker) or grassy weeds (green bristlegrass and barnyard grass) are respectively sown in a paper cup having a diameter of 7 cm and containing nutrient soil; after sowing, the seeds are covered with 1 cm of soil; the soil is pressed and watered, and then the seeds are cultivated in a greenhouse according to a conventional method; and stems and leaves are sprayed after 2-3 leaf stage of the weeds.
(§2) After the original medicinal acetone was dissolved, the test requires to use 1% of Tween 80 to stand in running water to prepare the solution to be tested with a required concentration. According to the design dose of the test, spray treatment was carried out on a track-type crop sprayer (designed and produced by British Engineer Research Ltd.) (spray pressure is 1.95 kg/cm^2, spray volume is 50 L/hm^2 and track speed is 1.48 km/h). The test was repeated for three times. The test material was treated and then placed in an operation hall. The medicinal liquid was naturally dried in the shade, and then was placed in a greenhouse and managed according to the conventional method, The response of the weeds to the drug was observed and recorded, After treatment, the control effects of the test drug on the weeds were visually inspected regularly, expressed by 0-100%. “0” represents no control effect and “100%” represents complete killing.
According to the above test method, part of the compounds of the formula I and KC are selected for activity test of controlling the zinnia.

[2] = test system: piemarker; assay: Herbicidal activity, post-emergence stem and leaf spray, greenhouse: piemarker control
Experimental: as §1, §2
According to the above test method, part of the compounds of the formula I and KC are selected for activity test of controlling the piemarker. […]

[3] = test system: barnyard grass; assay: Herbicidal activity, post-emergence stem and leaf spray, greenhouse: barnyard grass control
Experimental: as §1, §2
According to the above test method, part of the compounds of the formula I and KC are selected for the activity test of controlling the barnyard grass.

[4] = dose 37.5 g a.i./hm2, post-emergence stem and leaf spray
[5] = dose 150 g a.i./hm2, post-emergence stem and leaf spray
[6] = dose 600 g a.i./hm2, post-emergence stem and leaf spray

Row | SMILES | Zinnia control activity (after emergence, control effect %) ([1]; dose 37.5 g a.i./hm^2) [%] | Zinnia control activity (after emergence, control effect %) ([1]; dose 150 g a.i./hm^2) [%] | Zinnia control activity (after emergence, control effect %) ([1]; dose 600 g a.i./hm^2) [%] | Piemarker control activity (after emergence, control effect %) [2, 4] [%] | Piemarker control activity (after emergence, control effect %) [2, 5] [%] | Piemarker control activity (after emergence, control effect %) [2, 6] [%] | Barnyard grass control activity (after emergence, control effect %) [3, 4] [%] | Barnyard grass control activity (after emergence, control effect %) [3, 5] [%] | Barnyard grass control activity (after emergence, control effect %) [3, 6] [%]
1 | Cn1nnnc1N(C(=O)/C=C/c1ccccc1)C(=O)c1ccc(C(F)(F)F)cc1S(C)(=O)=O [Compound 1-1] | 100 | 100 | 100 | 100 | 100 | 100 |  |  | 
2 | Cn1nnnc1N(C(=O)/C=C/c1ccc2c(c1)OCO2)C(=O)c1ccc(C(F)(F)F)cc1S(C)(=O)=O [Compound 1-8] | 90 | 95 | 100 | 100 | 100 | 100 |  |  | 
3 | COc1c(S(C)(=O)=O)ccc(C(=O)N(C(=O)/C=C/c2ccccc2)c2nnnn2C)c1C [Compound 1-95] | 100 | 100 | 100 |  |  |  |  |  | 
4 | Cc1c(C(=O)N(C(=O)/C=C/c2ccccc2)c2nnnn2C)ccc(S(C)(=O)=O)c1OCC1CCCO1 (stereo not drawn) [Compound 1-100] |  |  |  |  |  |  | 100 | 100 | 100
5 | CCCOc1c(S(C)(=O)=O)ccc(C(=O)N(C(=O)/C=C/c2ccccc2)c2nnnn2C)c1C [Compound 1-296] |  |  |  |  |  |  | 100 | 100 | 100
6 | Cc1c(C(=O)N(C(=O)C2=CCCCC2)c2nnnn2C)ccc(S(C)(=O)=O)c1OCC(F)(F)F [Compound 2-13] | 100 | 100 | 100 |  |  |  | 80 | 100 | 100
7 | COCCOc1c(S(C)(=O)=O)ccc(C(=O)N(C(=O)C2=CCCCC2)c2nnnn2C)c1C [Compound 2-19] |  |  |  |  |  |  | 90 | 100 | 100
8 | COCc1c(S(C)(=O)=O)ccc(C(=O)N(C(=O)C2=CCCC2)c2nnnn2C)c1Cl [Compound 2-105] |  |  |  |  |  |  | 90 | 90 | 100
9 | COCc1c(S(C)(=O)=O)ccc(C(=O)N(C(=O)C2CC=CC2)c2nnnn2C)c1Cl [Compound 2-106] | 100 | 100 | 100 |  |  |  |  |  | 
10 | Cn1nnnc1N(C(=O)C1=CCCCC1)C(=O)c1ccc(S(C)(=O)=O)cc1Cl [Compound 2-269] |  |  |  | 90 | 95 | 100 | 80 | 90 | 95

From patent US12319663B2, “Alkene-containing amide compound and application thereof” (SHENYANG SINOCHEM AGROCHEMICALS R&D CO., LTD., priority 2019, dated 2025)
